≈ marks a conversion by molar mass, not a printed value. Read-outs that look alike come from different tables or passages of the source.
Columns and labels:
[1] = tested on: A. calcoaceticus 15473A; test: Minimum inhibitory concentration, agar dilution; assay type: cell-based; details: Acinetobacter calcoaceticus, Muller-Hinton agar, 10^7 CFU per ml, 37° C., 20 hours
Procedure: (§1) The minimum inhibitory concentration was determined by diluting the test compounds according to 2-fold dilution, suspending them in M uller-Hinton agar medium, inoculating the test strains having 10^7 CFU per 1 ml into the medium and then culturing the medium at 37° C. for 20 hours.

[2] = tested on: E. cloacae 1194E; test: Minimum inhibitory concentration, agar dilution; assay type: cell-based; details: Enterobacter cloacae, read-out: Minimum Inhibitory Concentration
Procedure: as §1

[3] = tested on: E. coli 10536; test: Minimum inhibitory concentration, agar dilution; assay type: cell-based; details: read-out: Minimum Inhibitory Concentration
Procedure: as §1

[4] = tested on: E. coli 3190Y; test: Minimum inhibitory concentration, agar dilution; assay type: cell-based; details: Escherichia coli, read-out: Minimum Inhibitory Concentration
Procedure: as §1

[5] = tested on: E. coli TEM1 1193E; test: Minimum inhibitory concentration, agar dilution; assay type: cell-based; details: Escherichia coli, TEM11193E, 20 h, read-out: Minimum Inhibitory Concentration
Procedure: as §1

[6] = tested on: E. coli TEM5 3739E; test: Minimum inhibitory concentration, agar dilution; assay type: cell-based; details: Escherichia coli, TEM53739E, 20 h, read-out: Minimum Inhibitory Concentration
Procedure: as §1

[7] = tested on: E. coli TEM9 2639E; test: Minimum inhibitory concentration, agar dilution; assay type: cell-based; details: Escherichia coli, TEM92639E, 20 h, read-out: Minimum Inhibitory Concentration
Procedure: as §1

[8] = tested on: K. aerogenes 1976E; test: Minimum inhibitory concentration, agar dilution; assay type: cell-based; details: Klebsiella aerogenes, Muller-Hinton agar, 10^7 CFU per ml, 37° C., 20 hours
Procedure: as §1

[9] = tested on: P. aeruginosa 10145; test: Minimum inhibitory concentration, agar dilution; assay type: cell-based; details: Pseudomonas aeruginosa, Muller-Hinton agar, 10^7 CFU per ml, 37° C., 20 hours
Procedure: as §1

[10] = tested on: P. aeruginosa 1912E; test: Minimum inhibitory concentration, agar dilution; assay type: cell-based; details: Pseudomonas aeruginosa, 20 h, read-out: Minimum Inhibitory Concentration
Procedure: as §1

[11] = tested on: P. aeruginosa 6065Y; test: Minimum inhibitory concentration, agar dilution; assay type: cell-based; details: Pseudomonas aeruginosa, 20 h, read-out: Minimum Inhibitory Concentration
Procedure: as §1

[12] = tested on: S. aureus 6538pA; test: Minimum inhibitory concentration, agar dilution; assay type: cell-based; details: Staphylococcus aureus, Muller-Hinton agar, 10^7 CFU per ml, 37° C., 20 hours
Procedure: as §1

[13] = tested on: S. aureus giorigio; test: Minimum inhibitory concentration, agar dilution; assay type: cell-based; details: Staphylococcus aureus, Muller-Hinton agar, 10^7 CFU per ml, 37° C., 20 hours
Procedure: as §1

[14] = tested on: S. faecalis 29212A; test: Minimum inhibitory concentration, agar dilution; assay type: cell-based; details: Enterococcus faecalis, read-out: Minimum Inhibitory Concentration
Procedure: as §1

[15] = tested on: S. marcescens 1826E; test: Minimum inhibitory concentration, agar dilution; assay type: cell-based; details: Serratia marcescens, Muller-Hinton agar, 10^7 CFU per ml, 37° C., 20 hours
Procedure: as §1

[16] = tested on: S. typhimurium 14028A; test: Minimum inhibitory concentration, agar dilution; assay type: cell-based; details: Salmonella enterica, read-out: Minimum Inhibitory Concentration
Procedure: as §1

[17] = Pharmacokinetic properties in SD rats; assay type: in vivo; details: rat; SD rats (male), intravenous, 20 mg/kg; blood, biological assay (agar well method)
Procedure: The pharmacokinetic properties of the compound of the present invention were determined using SD rats (.male.) weighing 220 to 340 g. Specifically, the test samples were administered in intravenous route in an amount of 20 mg/kg to 2 to 5 test animals. Blood was taken from femoral vein every hours after the administration and then subjected to a biological assay using agar well method to measure the blood concentration. The results of pharmacokinetic properties calculated from the above blood concentration are described in the following Table 3.

[18] = Escherichia coli, E. coli 10536, Muller-Hinton agar, 10^7 CFU per ml, 37° C., 20 hours
[19] = S. faecalis 29212A, Muller-Hinton agar, 10^7 CFU per ml, 37° C., 20 hours
[20] = S. typhimurium 14028A, Muller-Hinton agar, 10^7 CFU per ml, 37° C., 20 hours
[21] = E. coli 3190Y, Muller-Hinton agar, 10^7 CFU per ml, 37° C., 20 hours

| SMILES | MIC [1] [µg/mL] | MIC ([2]; 1194E, 20 h) [µg/mL] | MIC [3, 18] [µg/mL] | MIC ([4]; 3190Y, 20 h) [µg/mL] | MIC [5] [µg/mL] | MIC [6] [µg/mL] | MIC [7] [µg/mL] | MIC [8] [µg/mL] | MIC [9] [µg/mL] | MIC [10] [µg/mL] | MIC [11] [µg/mL] | MIC [12] [µg/mL] | MIC [13] [µg/mL] | MIC [14, 19] [µg/mL] | MIC [15] [µg/mL] | MIC [16, 20] [µg/mL] | AUC [17] [ng·h/mL] | half-life [17] [min] | MIC ([14]; 29212A, 20 h) [µg/mL] | MIC ([16]; TYPHIMURIUM, 20 h) [µg/mL] | further results |
| --- | --- | --- | --- | --- | --- | --- | --- | --- | --- | --- | --- | --- | --- | --- | --- | --- | --- | --- | --- | --- | --- |
| Nc1cc[n+](N)c(SCC2=C(C(=O)[O-])N3C(=O)C(NC(=O)C(=NOC(C(=O)O)c4ccc(O)c(O)c4)c4csc(N)n4)C3SC2)n1 (stereo not drawn) [I-4(a), 7-[(Z)-2-(2-aminothiazol-4-yl)-2-(α-carboxy-3,4-dihydroxybenzyloxyimino)acetamide]-3-(1,4-diaminopyrimidinium-2-yl)thiomethyl-3-cephem-4-carboxylate] | 0.25 (≈ 0.362 µM) | 1 (≈ 1.45 µM) | 0.016 (≈ 0.0232 µM) | 0.063 (≈ 0.0913 µM) | 0.063 (≈ 0.0913 µM) | 0.5 (≈ 0.725 µM) | 1 (≈ 1.45 µM) | 0.13 (≈ 0.188 µM) | 0.25 (≈ 0.362 µM) | 0.25 (≈ 0.362 µM) | 0.5 (≈ 0.725 µM) | 1 (≈ 1.45 µM) | 0.5 (≈ 0.725 µM) | 64 (≈ 92.8 µM) | 0.25 (≈ 0.362 µM) | 0.031 (≈ 0.0449 µM) | 52900 | 50 |  |  |  |
| C[n+]1ccc(N)nc1SCC1=C(C(=O)[O-])N2C(=O)C(NC(=O)/C(=N\OC(C(=O)O)c3ccc(O)c(O)c3)c3csc(N)n3)[C@H]2SC1 (stereo partly drawn) [I-5(a), 7-[(Z)-2-(2-aminothiazol-4-yl)-2-(α-carboxy-3,4-dihydroxybenzyloxyimino)acetamido]-3-(4-amino-1-methylpyrimidinium-2-yl)thiomethyl-3-cephem-4-carboxylate] | 0.5 (≈ 0.726 µM) | 4 (≈ 5.81 µM) | 0.031 (≈ 0.045 µM) | 0.063 (≈ 0.0915 µM) | 0.063 (≈ 0.0915 µM) | 0.5 (≈ 0.726 µM) | 2 (≈ 2.9 µM) | 0.25 (≈ 0.363 µM) | 0.5 (≈ 0.726 µM) | 0.5 (≈ 0.726 µM) | 1 (≈ 1.45 µM) | 0.5 (≈ 0.726 µM) | 0.25 (≈ 0.363 µM) | 64 (≈ 92.9 µM) | 0.5 (≈ 0.726 µM) | 0.031 (≈ 0.045 µM) | 43600 | 39 |  |  |  |
| C[n+]1c(N)cc(N)nc1SCC1=C(C(=O)[O-])N2C(=O)C(NC(=O)C(=NOC(C(=O)O)c3ccc(O)c(O)c3)c3csc(N)n3)C2SC1 (stereo not drawn) [I-3(a), 7-[(Z)-2-(2-aminothiazol-4-yl)-2-(α-carboxy-3,4-dihydroxybenzyloximio)acetamido]-3-(4,6-diamino-1-methylpyrimidinium-2-yl)thiomethyl-3-cephem-4-carboxylate] | 0.5 (≈ 0.71 µM) |  |  |  | 0.063 (≈ 0.0895 µM) | 0.5 (≈ 0.71 µM) | 4 (≈ 5.68 µM) | 0.25 (≈ 0.355 µM) | 0.5 (≈ 0.71 µM) | 0.5 (≈ 0.71 µM) | 1 (≈ 1.42 µM) | 0.5 (≈ 0.71 µM) | 0.5 (≈ 0.71 µM) |  | 0.5 (≈ 0.71 µM) |  | 55400 | 53 | 32 (≈ 45.5 µM) | 0.063 (≈ 0.0895 µM) | MIC ([2]; E. cloacae 1194E, Muller-Hinton agar, 10^7 CFU per ml, 37° C., 20 hours): 8 µg/mL (≈ 11.4 µM); MIC ([3]; Escherichia coli, 10536, 20 h): 0.063 µg/mL (≈ 0.0895 µM); MIC [4, 21]: 0.031 µg/mL (≈ 0.0441 µM) |
| Cc1c(N)nc(SCC2=C(C(=O)[O-])N3C(=O)C(NC(=O)/C(=N\OC(C(=O)O)c4ccc(O)c(O)c4)c4csc(N)n4)[C@H]3SC2)[n+](N)c1N (stereo partly drawn) [I-1(a), 7-[(Z)-2-(2-aminothiazol-4-yl)-2-(α-carboxy-3,4-dihydroxybenzyloxyimino)acetamido]-3-(5-methyl-1,4,6-triaminopyrimidinium-2-yl)thiomethyl-3-cephem-4-carboxylate] | 0.5 (≈ 0.696 µM) | 1 (≈ 1.39 µM) | 0.013 (≈ 0.0181 µM) | 0.063 (≈ 0.0877 µM) | 0.063 (≈ 0.0877 µM) | 0.25 (≈ 0.348 µM) | 1 (≈ 1.39 µM) | 0.13 (≈ 0.181 µM) | 0.25 (≈ 0.348 µM) | 0.5 (≈ 0.696 µM) | 0.5 (≈ 0.696 µM) | 0.25 (≈ 0.348 µM) | 0.13 (≈ 0.181 µM) |  | 0.25 (≈ 0.348 µM) |  | 52500 | 40 | 16 (≈ 22.3 µM) | 0.063 (≈ 0.0877 µM) |  |
| Nc1nc(C(=NOC(C(=O)O)c2ccc(O)c(O)c2)C(=O)NC2C(=O)N3C(C(=O)[O-])=C(CSc4nc(N)c5c([n+]4N)CCC5)CSC23)cs1 (stereo not drawn) [I-8(a), 7-[(Z)-2-(2-aminothiazol-4-yl)-2-(α-carboxy-3,4-dihydroxybenzyloxyimino)acetamido]-3-(1,4-diamino-1,5,6,7-tetrahydrocyclopentapyrimidin-2-yl) thiomethyl-3-cephem-4-carboxylate] | 0.25 (≈ 0.343 µM) | 2 (≈ 2.74 µM) | 0.031 (≈ 0.0425 µM) |  | 0.063 (≈ 0.0863 µM) | 0.5 (≈ 0.685 µM) | 1 (≈ 1.37 µM) | 0.13 (≈ 0.178 µM) | 0.5 (≈ 0.685 µM) | 0.5 (≈ 0.685 µM) | 1 (≈ 1.37 µM) | 0.5 (≈ 0.685 µM) | 0.063 (≈ 0.0863 µM) |  | 0.5 (≈ 0.685 µM) |  | 64500 | 53 | 16 (≈ 21.9 µM) | 0.063 (≈ 0.0863 µM) | MIC [4, 21]: 0.031 µg/mL (≈ 0.0425 µM) |

Reference: patent publication US5605895A, “Cephalosporin antibiotics and processes for preparation thereof” (Lucky, Ltd., priority 1993, dated 1997)
